Results as given in patent publication US20240139349A1, “GADOLINIUM CHELATE, PREPARATION METHOD THEREFOR, AND APPLICATION THEREOF” (SUZHOU ZHECI PHARMACEUTICAL TECHNOLOGY CO., LTD., priority 2021, published 2024).
Read-outs that look alike come from different tables or passages of the source.

Assay: In vitro MRI determination of longitudinal and transverse relaxation rates (r1, r2) of aqueous solutions
Type: physicochemical
Settings: for r1 (longitudinal relaxation rate) / r2 (transverse relaxation rate): aqueous solutions
[1] = H0 3.0 T clinical MRI system (Philips, Ingenia)
[2] = H0 7.0 T small animal MRI system

Row | Molecule | r2/r1 (H0 3.0 T) | r1 (longitudinal relaxation rate) [1] [M⁻¹ s⁻¹] | r2 (transverse relaxation rate) [1] [M⁻¹ s⁻¹] | r1 (longitudinal relaxation rate) [2] [M⁻¹ s⁻¹] | r2/r1
1 | O=C([O-])CN(CCN(CC(=O)[O-])CC(=O)O)CCN(CC(=O)[O-])CC(=O)O.[Gd+3] [Magnevist, Gd-DTPA] | 1.03 ± 0.03 | 4880 ± 120 | 5000 ± 100 | 3680 | 
2 | O=[N+]([O-])[O-].O=[N+]([O-])[O-].O=[N+]([O-])[O-].[Gd+3] [Gd(NO3)3, gadolinium nitrate] |  | 11390 ± 250 | 12040 ± 310 | 8920 | 1.06 ± 0.006
3 | O=C([O-])CN1CCN(CC(=O)[O-])CCN([C@H](CO)[C@H](O)CO)CCN(CC(=O)[O-])CC1.[Gd+3] (racemic) [Gadavist, Gd-BT-DO3A] | 1.07 ± 0.03 | 4600 ± 90 | 4900 ± 40 | 3770 | 
4 | Gd-BSA: gadolinium chelate of bovine serum albumin | 1.72±0.02 | 34880 ± 1060 | 59920 ± 1570 |  | 
